Measurements reported in US11173127B2, “Potato protein nanoparticles” (priority 2013, dated 2021).
“Also recorded” adds a separate entry of the source.

Tests used:
Assay type in all cases: physicochemical
[1] = VD retention at pH 2.5 and 25° C. (RP-HPLC); details: pH 2.5, 25° C., with 1.5 mg/ml potato protein vs without; VD 0.1 mg/ml
Description: The percentage of VD retention within the composition at pH 2.5, and 25° C. was also assessed, in the presence and absence of 1.5 mg/ml potato protein. VD concentration at time zero was 0.1 mg/ml. […] The measurements were done using RP-HPLC.

[2] = VD retention during pasteurization at 72° C. and pH 2.5 (RP-HPLC); details: pH 2.5, at least 60 seconds, with 1.5 mg/ml potato protein vs without, VD 0.1 mg/ml
Description: The percentage of VD retention within the composition was assessed during pasteurization at 72° C. and pH 2.5 for up to 60 seconds, in the presence and absence of 1.5 mg/ml potato protein. VD concentration at time zero was 0.1 mg/ml. The measurements were done using RP-HPLC. The samples were kept in the dark and the vials' head spaces were filled with argon to prevent oxidation until the analysis.

[3] = Effect of potato protein on solubilization and transparency (visual); details: for appearance / turbidity of solution: 25 mM phosphate buffer pH 2.5, without potato protein
Description: First, the effect of potato protein on solubilization and transparency of vitamin D (VD) was assessed. Two aqueous buffer solutions (25 mM phosphate buffer, pH 2.5) containing the same concentration of VD (0.1 mg/ml) were used. Only one vial (left vial of FIG. 1a) also included 1.5 mg/ml potato protein. It is clearly seen that due to the presence of the potato protein, the solution containing VD is transparent, while the one devoid of potato protein is turbid.
Second, the effect of potato protein on solubilization and transparency of omega 3 was also assessed. Specifically, two aqueous buffer solutions (25 mM phosphate buffer, pH 2.5) contained the same concentration of 0.5 ul/ml omega 3 (ethyl ester DHA) colored with Nile red, which is only pink in a hydrophobic environment. One vial (left vial of FIG. 1b) also contained 1.5 mg/ml potato protein.
Thus, the potato protein nanoparticle solubilized the hydrophobic ingredient in a uniform, transparent, manner.

[4] = VD3 degradation under industrial pasteurization and hot-bottling conditions (88° C., 1 min); details: cooled 30 min to 30-35° C., pH 2.5, 100 μg/ml VD3, PP 1 mg/ml where present
Description: VD3 in phosphate buffer, and PP-VD3 nanoparticles were prepared at 1 mg/ml potato protein (PP) and 100 μg/ml VD3 at pH 2.5.
Samples (without a cap) were heated in a water bath for 1 min at 88° C. Following heat treatment, samples were capped and maintained at room temperature for 30 minutes until their temperature decreased to 30-35° C. Controls of VD3, PP and PP-VD3 nanoparticles, at pH 2.5, were extracted immediately without any heat treatment. The other samples were extracted at room temp after the above heat treatment.
VD3 was extracted and quantified using a protocol based on Haham, et al. (Haham, M., et al., Stability and bioavailability of vitamin D nanoencapsulated in casein micelles. Food & Function, 2012). The protocol, used on both aqueous solutions (with and without PP), was as follows: 1 ml of VD3-containing sample was put into a glass test tube. 3 ml of a 2:1 chloroform:methanol mixture was then added, and the tubes were vortexed for ˜20 seconds. […]
Following extraction, 1.5 ml of RP-HPLC mobile phase (methanol:acetonitrile:water 49.5:49.5:1, by volume) were added to the drying vial, given 15 minutes to equilibrate after vortexing, and then transferred to a 1.5 ml glass HPLC vial. […] In the mobile phase, VD3 has a local UV absorption maximum at 267 nm, and so the 267 nm chromatogram was used for VD3 quantification.

[5] = Dynamic light scattering particle size distribution; details: VD without potato protein, 10-50 ug/ml VD, phosphate buffer 25 mM pH 2.5, bimodal distribution
Description: Dynamic light scattering (DLS) was used to evaluate size distribution of the potato protein-VD complexes.
The particle size of VD without potato protein was measured with different concentration of VD—10, 25, 35 and 50 ug/ml VD in a phosphate buffer (25 mM, pH 2.5). In all concentrations a bimodal distribution was obtained, with diameter larger than 1500 nm.
The size distributions of the VD—potato protein nano-particles were also measured at several concentrations of VD—10, 25, 35 and 50 μg/ml VD. The size distributions (FIG. 3) consisted of two fractions. The first fraction (84% by volume) comprised the small nano-particles of about 15 nm diameter, while the second fraction comprised nano-particles whose average diameter was around 80 nm.

[6] = Simulated shelf life test at 23° C. and pH 2.5, exposed to light; details: pH 2.5, light
Description: PP-VD3 nanoparticles and VD3 suspensions were prepared in glass test tubes at pH 2.5, pasteurized for 1 min at 88° C. in open test tubes, and then capped, cooled and maintained at room temperature (23° C.) exposed to light, and followed with time. Samples for all shelf life tests were prepared without any preservative.
Samples of 1 ml containing 100 μg/ml VD3 in buffer and 1 mg/ml PP were prepared. The samples were individually prepared in order to perform total volume extractions, minimizing transfer/precipitation losses. Three tubes of each type were quantified immediately, to serve as control. All the remaining tubes were then pasteurized. Three tubes of each type were quantified immediately, to serve as reference. The other tubes were stored at the conditions described above. At each time point, three tubes of each type were taken from storage and their VD3 content was quantified. In all experiments, the tubes were stored covered with their lids to prevent evaporation.
Further tests that show the great advantage of the present invention in conferring exceptional stability to active ingredient is provided in FIG. 8. […] Thus, the shelf life test examined the VD3 stability at low pH (2.5) and exposure to light, during time.

| Structure (SMILES) | protection of VD (VD retention) [1] | protection against heat induced degradation (VD retention) [2] | appearance / transparency of solution ([3]; 25 mM phosphate buffer pH 2.5, with 1.5 mg/ml potato protein) | appearance / turbidity of solution [3] | VD degraded / lost by heat treatment [4] [%] | particle diameter (DLS) [5] [nm] | VD degraded / lost ([6]; after one week) | post-pasteurization VD3 lost ([6]; within 24 hours) [%] |
| --- | --- | --- | --- | --- | --- | --- | --- | --- |
| C=C1CC[C@H](O)C/C1=C/C=C1\CCC[C@]2(C)[C@@H]([C@H](C)CCCC(C)C)CC[C@@H]12 [VD, Vitamin D3] | significant protection | significant protection | transparent | turbid; also recorded: much more turbid | 55 | > 1500 | almost all | 52 |
| CC/C=C\C/C=C\C/C=C\C/C=C\C/C=C\C/C=C\CCC(=O)OCC [omega 3, omega 3 DHA (ethyl ester)] | – | – | – | much more turbid | – | – | – | – |
